Test system: AAV1/2-mediated over-expression of human A53T alpha-synuclein (hA53T-aSYN) in the striatonigral region of female Sprague Dawley (SD) rats
Experiment: AAV1/2 alpha synuclein rat model of synucleinopathy (neuroprotective potential)
Format: in vivo
Conditions: Day 2 to Day 42; for Striatal dopamine levels, operated vs non-operated sides: FIG. 3; for Nigral TH+ve cell counts (operated side): TH+ve neurons in the striatonigral region compared to empty AAV1/2 control animals: immunohistochemistry and stereological cell counting, FIG. 1; for Striatal TH OD (operated vs non-operated sides): FIG. 2
Method: Compound I was evaluated in a adeno-associated virus (AAV) AAV1/2 alpha synuclein rat model based upon AAV1/2-mediated delivery and over-expression of human A53T alpha-synuclein (hA53T-aSYN) in the striatonigral region of the midbrain of female Sprague Dawley (SD) rats (Koprich et al, PLoS One. 7; 6(3):e17698, 2011). The study was designed to assess the ability of Compound I to protect dopaminergic neurons from viral vector mediated over-expression of aSYN leading to neurodegeneration in rat model. This model is typically used as a model for aSYN-induced Parkinsonism, but may serve as a model for aSYN-induced neuronal loss in general. AAV1/2 hA53T-aSYN (a viral vector delivering the capability to express human A53T mutant aSYN), or the control AAV1/2 empty vector, was injected stereotactically and unilaterally, into the striatal region of the midbrain. Rats were treated orally with Compound I (melt extrusion suspension), once daily, to provide equivalent doses of Compound I at 15, 30 and 45 mg/kg.
AAV1/2 hA53T-aSYN or empty AAV1/2 vector was administered sterotactically and unilaterally into the right striatal region on Day 1. Starting on Day 2 and continuing daily until Day 42, animals were fasted for 6 hr prior to oral administration of Compound I or vehicle (placebo). Food was reintroduced 60 minutes later. A total of 5 groups of animals, each group N=12, were employed.
Animals were killed for post-mortem assessments on Day 43, at least 18 h after last administration of Compound I or vehicle. Brains were removed along with the terminal blood collection.
As a consequence of localized synucleinopathy caused by the AAV1/2-encoded hA53T aSYN at or near the site of injection, tyrosine hydroxylase (TH)-expressing dopaminergic neurons in the affected striatonigral area degenerate (Koprich et al., PLoS One, 7; 6(3):e17698, 2011). Number of tyrosine hydroxylase positive (TH^+ve) cells within the striatonigral region of the right side of the brain (injected side), were assessed using immunohistochemistry and stereological cell counting. Tyrosine hydroxylase is a critical enzyme involved in dopamine biosynthesis and thus, its presence can be used as a marker of live neurons capable of producing dopamine.

Compound: Cc1ccc(C(=O)NNC(=O)c2c(C)cccc2Cl)cc1C#Cc1cnc2ccccc2c1 [Compound I]
- Striatal dopamine levels, operated vs non-operated sides (15 mg/kg oral once daily): failed to restore the dopamine biosynthetic capability
- Nigral TH+ve cell counts (operated side): TH+ve neurons in the striatonigral region compared to empty AAV1/2 control animals (15 mg/kg oral once daily): significant reduction (p<0.05)
- Striatal TH OD (operated vs non-operated sides) (30 mg/kg oral once daily): significant neuroprotective effect
- Striatal dopamine levels, operated vs non-operated sides (30 mg/kg oral once daily): failed to restore the dopamine biosynthetic capability
- Nigral TH+ve cell counts (operated side): TH+ve neurons in the striatonigral region compared to empty AAV1/2 control animals (30 mg/kg oral once daily): significant reduction (p<0.05)
- Striatal TH OD (operated vs non-operated sides) (45 mg/kg oral once daily): significant neuroprotective effect
- Striatal dopamine levels, operated vs non-operated sides (45 mg/kg oral once daily): still lower than that from its left counterpart
- Nigral TH+ve cell counts (operated side): TH+ve neurons in the striatonigral region compared to empty AAV1/2 control animals (45 mg/kg oral once daily): did not show significant reduction (p>0.05)

From US20220257582A1, “TREATMENT FOR SYNUCLEINOPATHIES” (SUN PHARMA ADVANCED RESEARCH COMPANY LIMITED, priority 2019, published 2022)
